Test results reported in the kinase profiling compilation of Christmann-Franck et al. (2016).

Experiments:
Assay in all cases: KINOMEscan competition binding
Conditions in all cases: compound 10.0 µM; call rule not given here
BRAF (human) = BRAF (human) (UniProt P15056)
ITK (human) = ITK (human) (UniProt Q08881)
SLK (human) = SLK (human) (UniProt Q9H2G2)
PDPK1 (human) = PDPK1 (human) (UniProt O15530)
HCK (human) = HCK (human) (UniProt P08631)
MAP4K1 (human) = MAP4K1 (human) (UniProt Q92918)
FGR (human) = FGR (human) (UniProt P09769)
[1] = tested on: EIF2AK4 KD2 (human), Q9P2K8 [S808G]
EPHA1 (human) = EPHA1 (human) (UniProt P21709)
Sequence of EPHA1 (human) (P21709 whole entry, looked up): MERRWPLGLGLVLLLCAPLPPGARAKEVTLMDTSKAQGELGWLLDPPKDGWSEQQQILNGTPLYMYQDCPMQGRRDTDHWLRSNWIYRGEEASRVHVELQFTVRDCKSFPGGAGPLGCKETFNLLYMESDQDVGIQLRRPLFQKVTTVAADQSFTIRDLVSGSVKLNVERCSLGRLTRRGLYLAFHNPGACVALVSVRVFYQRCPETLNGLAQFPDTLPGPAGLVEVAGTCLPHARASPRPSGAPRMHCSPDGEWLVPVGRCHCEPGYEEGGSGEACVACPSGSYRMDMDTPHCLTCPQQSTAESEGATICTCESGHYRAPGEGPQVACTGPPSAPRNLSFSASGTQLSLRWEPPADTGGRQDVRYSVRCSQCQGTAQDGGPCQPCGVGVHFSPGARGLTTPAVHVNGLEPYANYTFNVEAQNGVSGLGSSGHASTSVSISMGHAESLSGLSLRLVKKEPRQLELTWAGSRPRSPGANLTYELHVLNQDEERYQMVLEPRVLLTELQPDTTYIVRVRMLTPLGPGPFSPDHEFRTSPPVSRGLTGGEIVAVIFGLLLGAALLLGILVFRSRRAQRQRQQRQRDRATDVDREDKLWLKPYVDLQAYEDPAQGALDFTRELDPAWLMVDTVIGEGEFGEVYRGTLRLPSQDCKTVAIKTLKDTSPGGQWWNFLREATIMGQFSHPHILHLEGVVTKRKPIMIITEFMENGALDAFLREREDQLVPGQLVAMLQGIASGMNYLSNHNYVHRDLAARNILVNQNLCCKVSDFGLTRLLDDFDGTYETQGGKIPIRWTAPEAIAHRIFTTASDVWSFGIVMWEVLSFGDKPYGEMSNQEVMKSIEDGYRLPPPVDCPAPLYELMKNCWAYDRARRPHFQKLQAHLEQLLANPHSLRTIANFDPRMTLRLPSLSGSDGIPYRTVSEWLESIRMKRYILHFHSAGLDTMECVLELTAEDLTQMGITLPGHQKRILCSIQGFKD

TLK1 (human) = TLK1 (human) (UniProt Q9UKI8)
CDK5 (human) = CDK5 (human) (UniProt Q00535)
CSNK2A2 (human) = CSNK2A2 (human) (UniProt P19784)
[2] = target: TYK2 JH1 catalytic (human) (UniProt P29597)
TNIK (human) = TNIK (human) (UniProt Q9UKE5)
[3] = target: JAK2 JH1 catalytic (human) (UniProt O60674)
PDGFRA (human) = PDGFRA (human) (UniProt P16234)
AAK1 (human) = AAK1 (human) (UniProt Q2M2I8)
GAK (human) = GAK (human) (UniProt O14976)
STK33 (human) = STK33 (human) (UniProt Q9BYT3)
NTRK2 (human) = NTRK2 (human) (UniProt Q16620)
MYLK2 (human) = MYLK2 (human) (UniProt Q9H1R3)
TTK (human) = TTK (human) (UniProt P33981)
ACVR2B (human) = ACVR2B (human) (UniProt Q13705)
Sequence of ACVR2B (human) (Q13705 whole entry, looked up): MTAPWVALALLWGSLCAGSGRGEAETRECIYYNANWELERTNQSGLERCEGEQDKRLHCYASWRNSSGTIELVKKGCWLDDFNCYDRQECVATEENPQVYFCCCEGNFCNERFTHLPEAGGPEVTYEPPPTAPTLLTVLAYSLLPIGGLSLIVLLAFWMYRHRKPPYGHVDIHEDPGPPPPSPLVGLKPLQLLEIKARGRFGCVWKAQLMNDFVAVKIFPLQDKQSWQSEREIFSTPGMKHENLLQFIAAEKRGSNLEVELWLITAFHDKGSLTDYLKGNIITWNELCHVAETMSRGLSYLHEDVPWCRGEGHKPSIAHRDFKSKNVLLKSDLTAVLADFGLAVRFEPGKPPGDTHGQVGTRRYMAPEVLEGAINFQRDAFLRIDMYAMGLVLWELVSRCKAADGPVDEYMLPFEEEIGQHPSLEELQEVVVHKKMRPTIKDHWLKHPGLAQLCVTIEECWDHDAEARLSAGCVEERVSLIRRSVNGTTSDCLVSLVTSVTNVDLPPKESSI

MAPK10 (human) = MAPK10 (human) (UniProt P53779)
CSNK2A1 (human) = CSNK2A1 (human) (UniProt P68400)
Sequence of CSNK2A1 (human) (P68400 whole entry, looked up): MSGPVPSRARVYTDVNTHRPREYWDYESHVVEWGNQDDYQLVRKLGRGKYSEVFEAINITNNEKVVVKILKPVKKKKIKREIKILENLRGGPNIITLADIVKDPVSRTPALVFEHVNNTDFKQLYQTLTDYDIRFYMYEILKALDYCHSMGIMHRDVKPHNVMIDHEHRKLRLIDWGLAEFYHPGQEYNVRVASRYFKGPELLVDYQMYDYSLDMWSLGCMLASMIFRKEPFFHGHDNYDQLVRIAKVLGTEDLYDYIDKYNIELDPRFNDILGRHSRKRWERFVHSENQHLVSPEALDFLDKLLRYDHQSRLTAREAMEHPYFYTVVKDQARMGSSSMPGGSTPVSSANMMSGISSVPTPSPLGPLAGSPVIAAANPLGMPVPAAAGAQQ

TNK2 (human) = TNK2 (human) (UniProt Q07912)
Sequence of TNK2 (human) (Q07912 whole entry, looked up): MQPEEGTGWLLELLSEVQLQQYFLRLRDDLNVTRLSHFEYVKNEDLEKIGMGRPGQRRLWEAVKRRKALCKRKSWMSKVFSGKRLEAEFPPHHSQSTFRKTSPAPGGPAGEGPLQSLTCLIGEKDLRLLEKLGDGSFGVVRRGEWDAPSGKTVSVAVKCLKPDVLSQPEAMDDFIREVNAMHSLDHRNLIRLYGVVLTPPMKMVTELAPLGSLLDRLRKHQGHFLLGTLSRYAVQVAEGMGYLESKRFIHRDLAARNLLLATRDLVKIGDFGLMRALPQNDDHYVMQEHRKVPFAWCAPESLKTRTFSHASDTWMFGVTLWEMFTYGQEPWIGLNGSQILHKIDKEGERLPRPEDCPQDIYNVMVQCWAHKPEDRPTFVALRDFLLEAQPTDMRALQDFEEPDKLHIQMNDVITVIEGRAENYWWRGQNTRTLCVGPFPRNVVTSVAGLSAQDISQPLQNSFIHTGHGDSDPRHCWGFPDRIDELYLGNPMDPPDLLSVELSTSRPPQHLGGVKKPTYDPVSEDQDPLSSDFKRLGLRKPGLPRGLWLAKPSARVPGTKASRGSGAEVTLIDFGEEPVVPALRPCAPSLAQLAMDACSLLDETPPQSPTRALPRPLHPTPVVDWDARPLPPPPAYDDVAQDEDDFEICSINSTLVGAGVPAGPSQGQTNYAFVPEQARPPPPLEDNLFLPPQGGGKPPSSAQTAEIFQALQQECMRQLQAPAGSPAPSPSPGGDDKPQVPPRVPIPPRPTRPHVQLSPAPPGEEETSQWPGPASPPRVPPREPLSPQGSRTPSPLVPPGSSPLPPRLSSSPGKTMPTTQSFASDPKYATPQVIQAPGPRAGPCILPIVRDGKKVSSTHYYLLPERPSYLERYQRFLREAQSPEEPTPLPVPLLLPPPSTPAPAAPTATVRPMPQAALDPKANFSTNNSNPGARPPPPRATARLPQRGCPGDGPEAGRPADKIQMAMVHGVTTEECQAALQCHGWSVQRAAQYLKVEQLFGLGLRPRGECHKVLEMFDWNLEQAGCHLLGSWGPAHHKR

MAP4K4 (human) = MAP4K4 (human) (UniProt O95819)
MAP4K5 (human) = MAP4K5 (human) (UniProt Q9Y4K4)
MKNK2 (human) = MKNK2 (human) (UniProt Q9HBH9)
TNK1 (human) = TNK1 (human) (UniProt Q13470)
MST4 (human) = MST4 (human) (UniProt Q9P289)
STK17B (human) = STK17B (human) (UniProt O94768)
PKN2 (human) = PKN2 (human) (UniProt Q16513)
TESK1 (human) = TESK1 (human) (UniProt Q15569)
MAP4K3 (human) = MAP4K3 (human) (UniProt Q8IVH8)
STK16 (human) = STK16 (human) (UniProt O75716)
KIT (human) = KIT (human) (UniProt P10721)
AURKA (human) = AURKA (human) (UniProt O14965)
TNNI3K (human) = TNNI3K (human) (UniProt Q59H18)
EPHA5 (human) = EPHA5 (human) (UniProt P54756)

Sequence of BRAF (human) (P15056 whole entry, looked up): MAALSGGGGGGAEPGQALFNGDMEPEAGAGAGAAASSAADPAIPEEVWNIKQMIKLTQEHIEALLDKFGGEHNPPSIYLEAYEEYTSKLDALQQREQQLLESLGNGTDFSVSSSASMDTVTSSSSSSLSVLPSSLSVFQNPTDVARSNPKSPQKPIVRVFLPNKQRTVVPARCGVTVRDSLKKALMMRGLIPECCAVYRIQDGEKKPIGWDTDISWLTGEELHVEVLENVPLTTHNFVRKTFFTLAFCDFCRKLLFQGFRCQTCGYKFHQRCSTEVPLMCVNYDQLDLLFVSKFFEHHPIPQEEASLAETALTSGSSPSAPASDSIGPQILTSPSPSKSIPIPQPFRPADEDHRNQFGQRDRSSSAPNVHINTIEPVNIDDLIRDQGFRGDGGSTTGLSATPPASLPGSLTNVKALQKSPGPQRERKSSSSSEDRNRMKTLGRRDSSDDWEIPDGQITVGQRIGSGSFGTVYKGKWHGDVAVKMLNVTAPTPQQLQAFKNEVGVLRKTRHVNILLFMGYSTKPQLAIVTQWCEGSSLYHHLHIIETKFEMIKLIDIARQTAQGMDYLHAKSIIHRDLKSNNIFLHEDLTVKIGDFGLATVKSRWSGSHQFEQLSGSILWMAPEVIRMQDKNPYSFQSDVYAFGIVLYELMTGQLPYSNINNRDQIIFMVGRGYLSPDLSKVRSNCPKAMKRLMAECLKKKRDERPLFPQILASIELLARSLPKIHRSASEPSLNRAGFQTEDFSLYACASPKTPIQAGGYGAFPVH
Sequence of MAP4K1 (human) (Q92918 whole entry, looked up): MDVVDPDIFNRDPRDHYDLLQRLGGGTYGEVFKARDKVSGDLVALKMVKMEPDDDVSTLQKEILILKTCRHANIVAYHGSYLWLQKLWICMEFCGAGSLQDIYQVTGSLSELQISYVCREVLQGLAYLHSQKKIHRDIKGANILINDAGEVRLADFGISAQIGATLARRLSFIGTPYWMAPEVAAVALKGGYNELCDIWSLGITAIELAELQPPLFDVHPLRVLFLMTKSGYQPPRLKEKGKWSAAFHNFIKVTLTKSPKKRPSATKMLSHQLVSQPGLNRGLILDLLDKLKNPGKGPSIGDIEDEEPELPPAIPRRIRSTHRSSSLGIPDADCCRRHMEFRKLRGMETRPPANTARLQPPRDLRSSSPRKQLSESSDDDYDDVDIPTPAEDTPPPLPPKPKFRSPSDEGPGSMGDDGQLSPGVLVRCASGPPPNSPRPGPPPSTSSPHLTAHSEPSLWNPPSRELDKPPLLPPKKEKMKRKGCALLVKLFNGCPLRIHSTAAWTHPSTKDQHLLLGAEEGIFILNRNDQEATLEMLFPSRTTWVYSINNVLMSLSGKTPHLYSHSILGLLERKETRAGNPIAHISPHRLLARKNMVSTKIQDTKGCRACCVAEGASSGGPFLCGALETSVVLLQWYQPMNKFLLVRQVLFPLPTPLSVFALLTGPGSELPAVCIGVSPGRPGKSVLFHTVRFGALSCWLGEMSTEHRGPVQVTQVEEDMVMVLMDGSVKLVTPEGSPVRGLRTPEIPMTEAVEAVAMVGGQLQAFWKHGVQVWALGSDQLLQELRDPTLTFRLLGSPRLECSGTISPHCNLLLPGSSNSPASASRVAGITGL
Sequence of HCK (human) (P08631 whole entry, looked up): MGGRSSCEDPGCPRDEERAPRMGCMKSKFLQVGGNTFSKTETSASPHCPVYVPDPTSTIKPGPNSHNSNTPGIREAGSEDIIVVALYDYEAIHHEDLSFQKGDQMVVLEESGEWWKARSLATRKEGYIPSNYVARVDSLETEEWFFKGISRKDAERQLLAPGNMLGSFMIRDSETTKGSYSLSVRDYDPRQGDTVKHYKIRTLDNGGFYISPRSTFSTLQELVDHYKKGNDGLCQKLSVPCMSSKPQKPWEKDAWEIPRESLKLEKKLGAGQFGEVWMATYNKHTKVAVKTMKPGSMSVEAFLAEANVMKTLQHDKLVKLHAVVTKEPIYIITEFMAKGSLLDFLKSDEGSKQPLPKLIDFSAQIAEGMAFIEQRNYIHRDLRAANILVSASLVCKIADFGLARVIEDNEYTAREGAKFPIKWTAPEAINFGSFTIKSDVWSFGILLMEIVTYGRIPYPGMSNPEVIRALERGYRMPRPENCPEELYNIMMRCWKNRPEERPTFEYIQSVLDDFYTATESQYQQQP

kinase still bound, per cent of control (BRAF (human)): no effect (inactive)
kinase still bound, per cent of control (ITK (human)): 0.1%
kinase still bound, per cent of control (SLK (human)): 0%
kinase still bound, per cent of control (PDPK1 (human)): 5.8%
kinase still bound, per cent of control (HCK (human)): 0%
kinase still bound, per cent of control (MAP4K1 (human)): 0.5%
kinase still bound, per cent of control (FGR (human)): 0.1%
kinase still bound, per cent of control [1]: 0%
kinase still bound, per cent of control (EPHA1 (human)): 0.2%
kinase still bound, per cent of control (TLK1 (human)): 0.75%
kinase still bound, per cent of control (CDK5 (human)): 16.8%
kinase still bound, per cent of control (CSNK2A2 (human)): 0%
kinase still bound, per cent of control [2]: 0%
kinase still bound, per cent of control (TNIK (human)): 0%
kinase still bound, per cent of control [3]: 0.1%
kinase still bound, per cent of control (PDGFRA (human)): 0.8%
kinase still bound, per cent of control (AAK1 (human)): 0.1%
kinase still bound, per cent of control (GAK (human)): 2.7%
kinase still bound, per cent of control (STK33 (human)): 0%
kinase still bound, per cent of control (NTRK2 (human)): 0%
kinase still bound, per cent of control (MYLK2 (human)): 20.7%
kinase still bound, per cent of control (TTK (human)): 0%
kinase still bound, per cent of control (ACVR2B (human)): 2.4%
kinase still bound, per cent of control (MAPK10 (human)): 0%
kinase still bound, per cent of control (CSNK2A1 (human)): 0%
kinase still bound, per cent of control (TNK2 (human)): 0%
kinase still bound, per cent of control (MAP4K4 (human)): 0.25%
kinase still bound, per cent of control (MAP4K5 (human)): 0%
kinase still bound, per cent of control (MKNK2 (human)): 2.1%
kinase still bound, per cent of control (TNK1 (human)): 1%
kinase still bound, per cent of control (MST4 (human)): 17.2%
kinase still bound, per cent of control (STK17B (human)): 0.1%
kinase still bound, per cent of control (PKN2 (human)): 3%
kinase still bound, per cent of control (TESK1 (human)): 10.8%
kinase still bound, per cent of control (MAP4K3 (human)): 0.1%
kinase still bound, per cent of control (STK16 (human)): 0%
kinase still bound, per cent of control (KIT (human)): 0.1%
kinase still bound, per cent of control (AURKA (human)): 0%
kinase still bound, per cent of control (TNNI3K (human)): 7.6%
kinase still bound, per cent of control (EPHA5 (human)): 0%
SMILES: CCS(=O)(=O)Nc1ccc2c(c1)[C@H](/C(=N/c1ccc(CN3CCCCC3)cc1)c1ccccc1)C(=O)N2
